Laboratory results reported in patent US6506555B1, “Use of HIV protease inhibiting compounds” (Institut National de la Sante et de la Recherche Medicale …, priority 1998, dated 2003).

How the values were obtained:
cytotoxic T lymphocytes = type: in vivo, C57BL/6 mice; settings: splenocytes eight days after i.v. LCMV-WE; EL4 cells sensitized with GP33-41 or NP peptide
[1] = system: antibodies specific for the LCMV nucleoprotein and glycoprotein; assay: Antibody response to LCMV nucleoprotein and glycoprotein (ELISA); type: in vivo, mice; settings: ELISA after four and eight weeks
Protocol: The antibodies specific for the LCMV nucleoprotein and for the LCMV glycoprotein were evaluated after four and eight weeks by an ELISA test as described in O. Planz, P. Seiler, H. Hengartner and R. M. Zinkernagel, Nature, 382, 629 […].

Hybridoma (MHC-I) = assay: IL-2 release by hybridoma FT6.9 cocultured with NOD pancreatic islets; type: cell-based, NOD mice
Protocol: (§1) Ritonavir (0.6 mg per 10 g of body weight per day) or a placebo (phosphate buffer PBS) was administered by the intraperitoneal route to NOD mice. The pancreatic islets were removed and cultured for 24 hours in the presence or in the absence of 2.5 μg/ml of ritonavir. The cells were then cocultured with MHC-1-restricted hybridomas (FT6.9 and FT7.9 for 24 hours). The quantity of IL-2 was assayed in the supernatant. The following tables present the quantities of IL-2 measured by a test of proliferation (cpm×10^−3).

Hybridoma ETG.9 (MHC-I) = assay: as above; type: cell-based, NOD mice
Protocol: as §1

[2] = Appearance of type 1 diabetes in NOD mice; type: in vivo; settings: ritonavir versus diluent
Protocol: FIG. 5 represents the percentage of nondiabetic NOD mice as a function of time, in the case of a treatment with ritonavir compared with administration of a diluent.
as §1, with “supernatant.” for “supernatant. The following tables present the quantities of IL-2 measured by a test of proliferation (cpm×10^−3).”

hepatitis C virus = assay: Clinical case: patient doubly infected with HIV and HCV treated with ritonavir; type: in vivo, human
Description: A patient who is a drug addict is monitored for a double infection with HIV and HCV, discovered in 1986 but undoubtedly prior to this date. The progression of the HIV infection is slow, with a viremia established at around 4 Log HIV RNA copies/ml. The level of CD4 T lymphocytes dropped with a first opportunistic lung infection. […] An HIV protease inhibitor, ritonavir, was introduced into the therapy of the patient and followed since then. The HIV viremia became undetectable during the two months which followed the beginning of the treatment before returning to the previous level from the fourth month. The level of CD4 T lymphocytes increased during this period and continued to increase even after the reappearance of the HIV viremia. By contrast, the HCV viremia became negative at the 7th month after the introduction of ritonavir (FIG. 7), and has remained so two years later.

[3] = system: M113 cells presenting the MART-1 antigen; assay: Proliferation of M77-84 T lymphocytes stimulated by treated M113 cells
[4] = in vivo PBS, in vitro ritonavir 2.5 μg/ml
[5] = in vivo ritonavir, in vitro PBS
[6] = in vivo ritonavir, in vitro ritonavir

Q: What does the source list for `CC(C)c1nc(CN(C)C(=O)N[C@H](C(=O)N[C@@H](Cc2ccccc2)C[C@H](O)[C@H](Cc2ccccc2)NC(=O)OCc2cncs2)C(C)C)cs1` [ritonavir]?
A: lysis of the target cells (direct lysis ex vivo after systemic infection) (cytotoxic T lymphocytes): reduced; capacity for synthesizing anti-virus antibodies [1]: does not reduce; percentage in brackets (reduction of IL-2 versus PBS/PBS) (Hybridoma (MHC-I); [4]): 37%; percentage in brackets (reduction of IL-2 versus PBS/PBS) (Hybridoma (MHC-I); [5]): 47%; percentage in brackets (reduction of IL-2 versus PBS/PBS) (Hybridoma (MHC-I); [6]): 31%; recognition ex vivo of Langerhan's cells by cytotoxic T clones (Hybridoma ETG.9 (MHC-I); cells isolated from NOD mice treated with ritonavir, statement covers both hybridomas): no longer recognized; quantity of IL-2 measured by a test of proliferation (Hybridoma ETG.9 (MHC-I); [4]): 40 cpm×10^−3; quantity of IL-2 measured by a test of proliferation (Hybridoma ETG.9 (MHC-I); [5]): 34 cpm×10^−3; quantity of IL-2 measured by a test of proliferation (Hybridoma ETG.9 (MHC-I); [6]): 44 cpm×10^−3; appearance of type 1 diabetes [2]: delays; HCV viremia (hepatitis C virus; at the 7th month after introduction of ritonavir, remained so two years later): negative; HIV viremia (hepatitis C virus; during the two months after beginning of treatment, returned to previous level from the fourth month): undetectable; level of CD4 T lymphocytes (hepatitis C virus; one patient, during treatment): increased; presentation of MART-1 antigen: proliferation of M77-84 T lymphocytes ([3]; M113 cells cultured 24 hours with 0.1-5 μg/ml, proliferation after 48 hours): inhibition; inhibition of proliferation ([3]; antigen presenting cells cultured in sera of HIV-negative volunteers obtained 3 hours after a single oral dose of 500 mg): Up to 70%
